For 1 compound, TGI results are on record in PubChem BioAssay (NCI).

The structures appear in SMILES notation.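 These data come from cells grown in 96-well plates and exposed to compound for 48 hours at five concentrations. TGI marks complete inhibition of growth.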 A value given as a limit tells only on which side of the number the result lay.

Some test systems named below: PC-3 prostate; HCC-2998 colon; SN12C renal; OVCAR-3 ovarian; TK-10 renal; HCT-15 colon; OVCAR-5 ovarian; SK-MEL-2 melanoma; U251 CNS; SK-MEL-28 melanoma.
Holding throughout (assay): NCI anticancer screen, dose series, 48 h

For the compound `O=C(NC(=O)c1c(F)cccc1F)Nc1cccc(Oc2ncc(Cl)cn2)c1`, the TGI was greater than 100 µM in the assay on PC-3 prostate; greater than 27.3 µM in the assay with HCC-2998 colon; greater than 100 µM in the assay with SN12C renal; greater than 100 µM in the assay with OVCAR-3 ovarian; greater than 100 µM in the assay with TK-10 renal; greater than 100 µM in the assay with HCT-15 colon. For the same compound, the TGI with OVCAR-5 ovarian was greater than 100 µM; in the assay on SK-MEL-2 melanoma, greater than 100 µM; in the assay with U251 CNS, greater than 83.6 µM; in the assay with SK-MEL-28 melanoma, greater than 100 µM.
